Experimental data: US20210340500A1, “METHOD FOR PRODUCING INTESTINAL CELLS FROM PLURIPOTENT STEM CELLS” (TOKYO INSTITUTE OF TECHNOLOGY, priority 2018, published 2021)

Legend:
Caco-2 cells [1] = details: cited from earlier work
[2] = test system: hiPSC-derived enterocytes
Caco-2 cells [3] = assay: Transport across Caco-2 cell monolayer (literature); assay type: in vitro ADME, human; details: corresponds to the literature value
CYP3A4 = CYP3A4 (Homo sapiens, UniProt P08684); assay: CYP metabolism assay (midazolam hydroxylation, LC-MS/MS) in hiPS-derived enterocytes; details: day 21 of differentiation, 120 min incubation
CYP3A4, sequence (P08684 whole entry): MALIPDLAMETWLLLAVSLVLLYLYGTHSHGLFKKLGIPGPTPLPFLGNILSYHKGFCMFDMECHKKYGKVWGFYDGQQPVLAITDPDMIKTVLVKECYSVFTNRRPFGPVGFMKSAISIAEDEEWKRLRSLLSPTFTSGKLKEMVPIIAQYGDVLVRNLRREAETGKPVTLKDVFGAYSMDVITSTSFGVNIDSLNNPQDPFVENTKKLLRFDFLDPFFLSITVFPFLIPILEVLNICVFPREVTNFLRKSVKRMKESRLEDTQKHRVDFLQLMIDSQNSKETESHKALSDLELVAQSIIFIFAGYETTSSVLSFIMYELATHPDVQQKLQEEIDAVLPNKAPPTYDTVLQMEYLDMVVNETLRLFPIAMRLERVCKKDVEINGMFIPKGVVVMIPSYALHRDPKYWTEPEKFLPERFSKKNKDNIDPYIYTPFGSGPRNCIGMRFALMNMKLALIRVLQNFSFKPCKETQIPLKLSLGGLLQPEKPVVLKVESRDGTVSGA

CYP3A4 expression = assay: CYP3A4 mRNA expression in hiPSC-derived enterocytes by real time PCR; assay type: cell-based, human; details: day 21 of differentiation
Protocol: For intestine differentiation, the day 10 intestinal precursor cell stock was freeze thawed, and plated onto a rehydrated vitrigel membrane (CVM) 24-well insert (ad-MED Vitrigel™ 2, KANTO KAGAKU, culture area: 0.33 cm^2/insert) in M2 medium at a concentration of 1.6×10^5 cells/well. Y-27632 (WAKO: 251-00514) was added to the medium upon plating for the first 2 days. The cells were cultured in M2 until day 15. A volume of the medium was 200 μL for an upper layer and 700 μL for a lower layer of the cell culture insert. The medium was changed to M3-1 or M3-2 for days 15 to 21, or up to day 30. The medium was replaced every 2 days with a fresh medium.
M3-1 medium: William's Medium E supplemented with L-glutamine, HCM SingleQuots (containing neither GA1000 nor human EGF) (Lonza, CC-4182), 1% PS (Nacalai), 10 ng/ml recombinant human HGF (PeproTech 100-39), 1 μM dexamethasone (Sigma-Aldrich, D8893), 1.4 μM BIO, and 1 M calcitriol (Sigma-Aldrich, D1530). […]
For a reverse transcription reaction, 2.5 μg of RNA was reverse-transcribed using PrimeScript™ RT Master Mix (Takara, Japan). For real-time PCR analysis, mRNA expression was quantified with SyberGreen on a StepOne Plus (Applied Biosystems, Foster City, Calif.). […] A target mRNA level was expressed as an arbitrary unit, and was determined using the ΔΔ CT method.

P-gp = P-gp (Homo sapiens, UniProt P08183)
P-gp, sequence (P08183 whole entry): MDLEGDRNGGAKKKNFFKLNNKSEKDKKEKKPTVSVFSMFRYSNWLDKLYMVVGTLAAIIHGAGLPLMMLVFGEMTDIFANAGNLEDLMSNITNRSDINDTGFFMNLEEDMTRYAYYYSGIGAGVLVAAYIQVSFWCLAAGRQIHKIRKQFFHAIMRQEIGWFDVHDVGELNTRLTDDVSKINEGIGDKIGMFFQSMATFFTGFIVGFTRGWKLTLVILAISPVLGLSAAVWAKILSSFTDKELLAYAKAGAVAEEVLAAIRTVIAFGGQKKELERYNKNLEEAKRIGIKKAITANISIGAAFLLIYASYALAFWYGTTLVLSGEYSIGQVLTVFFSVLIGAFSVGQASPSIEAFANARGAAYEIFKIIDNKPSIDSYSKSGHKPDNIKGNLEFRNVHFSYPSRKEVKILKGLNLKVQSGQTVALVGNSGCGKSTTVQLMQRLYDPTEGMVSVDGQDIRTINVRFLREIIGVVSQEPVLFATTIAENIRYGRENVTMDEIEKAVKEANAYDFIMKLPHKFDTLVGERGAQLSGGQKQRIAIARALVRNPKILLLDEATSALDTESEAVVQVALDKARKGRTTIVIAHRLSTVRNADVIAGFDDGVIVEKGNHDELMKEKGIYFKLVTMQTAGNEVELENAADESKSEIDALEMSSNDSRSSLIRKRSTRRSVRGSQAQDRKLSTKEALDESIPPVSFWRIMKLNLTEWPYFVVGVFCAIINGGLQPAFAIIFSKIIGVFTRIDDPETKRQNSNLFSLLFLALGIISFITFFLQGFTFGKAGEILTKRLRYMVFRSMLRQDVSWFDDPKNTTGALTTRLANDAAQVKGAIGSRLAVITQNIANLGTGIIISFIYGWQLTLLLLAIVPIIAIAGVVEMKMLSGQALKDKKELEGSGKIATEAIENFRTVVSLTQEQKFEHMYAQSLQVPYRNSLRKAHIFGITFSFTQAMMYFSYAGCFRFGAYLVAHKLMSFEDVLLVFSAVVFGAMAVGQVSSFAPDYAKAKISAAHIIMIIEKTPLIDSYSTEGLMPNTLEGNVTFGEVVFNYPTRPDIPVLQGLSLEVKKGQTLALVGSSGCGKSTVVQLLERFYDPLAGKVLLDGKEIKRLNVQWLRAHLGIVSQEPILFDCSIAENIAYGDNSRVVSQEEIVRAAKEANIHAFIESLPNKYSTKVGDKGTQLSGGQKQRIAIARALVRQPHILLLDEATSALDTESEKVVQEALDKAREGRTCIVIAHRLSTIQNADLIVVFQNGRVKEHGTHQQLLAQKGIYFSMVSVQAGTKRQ

CC(C)NCC(O)COc1cccc2ccccc12 (centres unmarked) [propranolol]
transcellular transport in the Caco-2 cells (Caco-2 cells [1]; Artursson 1990): 4.19e-05 cm/s | transcellular transport (present result) ([2]; human, 120 min, 0.1 μCi/3 mL, pH 7.4): 48 μL/120 min/well | transcellular transport in the Caco-2 cells, converted (Caco-2 cells [3]): approximately 99.4 μL/120 min/well

OC[C@@H](O)[C@@H](O)[C@H](O)[C@H](O)CO [mannitol]
transport clearance across a Caco-2 cell monolayer (paracellular) (Caco-2 cells [1]; Cogburn et al. 1991): 3 %/cm^2/hr | directional transport across a cell monolayer [2]: directional transport of neither propranolol nor mannitol across a cell monolayer was observed

Cc1ncc2n1-c1ccc(Cl)cc1C(c1ccccc1F)=NC2 [midazolam]
clearance rate of formation of 1′-OH midazolam (CYP3A4): 0.773 μL/min/mg cellular protein

C=C1/C(=C\C=C2/CCC[C@]3(C)[C@@H]([C@H](C)CCCC(C)(C)O)CC[C@@H]23)C[C@@H](O)C[C@@H]1O [calcitriol]
CYP3A4 expression when calcitriol is removed from M3-2 medium (CYP3A4 expression): minimally expressed CYP3A4

C[C@H]1O[C@@H](O[C@H]2[C@@H](O)C[C@H](O[C@H]3[C@@H](O)C[C@H](O[C@H]4CC[C@@]5(C)[C@H](CC[C@@H]6[C@@H]5C[C@@H](O)[C@]5(C)[C@@H](C7=CC(=O)OC7)CC[C@]65O)C4)O[C@@H]3C)O[C@@H]2C)C[C@H](O)[C@@H]1O [digoxin]
directional B-to-A transport compared with A-to-B transport (P-gp): at a level higher than apical-to-basal transport
